From ChEMBL document CHEMBL4507256 (2021)

How the values were obtained:
[1] = molecular target: Misshapen-like kinase 1 (Homo sapiens) (UniProt Q8N4C8); conditions: Compound concentration 1000.0 nM
[2] = molecular target: Serine/threonine-protein kinase 17A (Homo sapiens) (UniProt Q9UEE5); conditions: Compound concentration 1000.0 nM
[3] = molecular target: 5-hydroxytryptamine receptor 6 (Homo sapiens) (UniProt P50406); experiment: 5-HT6 (h) CEREP ligand profiling; conditions: Compound concentration 10.0 uM
[4] = molecular target: Muscarinic acetylcholine receptor M3 (Homo sapiens) (UniProt P20309); experiment: M3 (h) CEREP ligand profiling; conditions: Compound concentration 10.0 uM
[5] = molecular target: C-C chemokine receptor type 1 (Homo sapiens) (UniProt P32246); experiment: CCR1 (h) CEREP ligand profiling; conditions: Compound concentration 10.0 uM
[6] = molecular target: D(1A) dopamine receptor (Homo sapiens) (UniProt P21728); experiment: D1 (h) CEREP ligand profiling; conditions: Compound concentration 10.0 uM
[7] = molecular target: Adenosine receptor A3 (Homo sapiens) (UniProt P0DMS8); experiment: A3 CEREP ligand profiling; conditions: Compound concentration 10.0 uM
[8] = molecular target: Sodium-dependent dopamine transporter (Homo sapiens) (UniProt Q01959); experiment: DA transporter(h) CEREP ligand profiling; conditions: Compound concentration 10.0 uM
[9] = molecular target: Neurotensin receptor type 1 (Homo sapiens) (UniProt P30989); experiment: NT1 (h) CEREP ligand profiling; conditions: Compound concentration 10.0 uM
[10] = molecular target: Thromboxane A2 receptor (Homo sapiens) (UniProt P21731); experiment: TXA2/PGH2 CEREP ligand profiling; conditions: Compound concentration 10.0 uM
[11] = molecular target: Vasoactive intestinal polypeptide receptor 1 (Homo sapiens) (UniProt P32241); experiment: VIP1 (h) CEREP ligand profiling; conditions: Compound concentration 10.0 uM
[12] = molecular target: Endothelin receptor type B (Homo sapiens) (UniProt P24530); experiment: ETB (h) CEREP ligand profiling; conditions: Compound concentration 10.0 uM
[13] = molecular target: Vasopressin V1a receptor (Homo sapiens) (UniProt P37288); experiment: V1a (h) CEREP ligand profiling; conditions: Compound concentration 10.0 uM
[14] = molecular target: Platelet-derived growth factor receptor (Homo sapiens) (UniProt P09619+P16234); experiment: PDGF CEREP ligand profiling; assay type: protein-complex assay; conditions: Compound concentration 10.0 uM
[15] = molecular target: Na+ channel (sodium channel alpha subunit family) (Homo sapiens, UniProt P35498+P35499+Q01118+Q14524+Q15858+Q99250+Q9NY46+Q9UI33+Q9UQD0+Q9Y5Y9); experiment: Na+ channel CEREP ligand profiling; assay type: protein assay; conditions: probe veratridine (ligand); compound concentration 10 uM
[16] = molecular target: Adenosine receptor A1 (Homo sapiens) (UniProt P30542); experiment: A1 CEREP ligand profiling; conditions: Compound concentration 10.0 uM
[17] = molecular target: Histamine H2 receptor (Homo sapiens) (UniProt P25021); conditions: Compound concentration 10.0 uM
[18] = molecular target: T1, Muscarinic acetylcholine receptor M5 (Homo sapiens) (UniProt P08912); experiment: M5 (h) CEREP ligand profiling; conditions: Compound concentration 10.0 uM
T1 sequence (whole entry): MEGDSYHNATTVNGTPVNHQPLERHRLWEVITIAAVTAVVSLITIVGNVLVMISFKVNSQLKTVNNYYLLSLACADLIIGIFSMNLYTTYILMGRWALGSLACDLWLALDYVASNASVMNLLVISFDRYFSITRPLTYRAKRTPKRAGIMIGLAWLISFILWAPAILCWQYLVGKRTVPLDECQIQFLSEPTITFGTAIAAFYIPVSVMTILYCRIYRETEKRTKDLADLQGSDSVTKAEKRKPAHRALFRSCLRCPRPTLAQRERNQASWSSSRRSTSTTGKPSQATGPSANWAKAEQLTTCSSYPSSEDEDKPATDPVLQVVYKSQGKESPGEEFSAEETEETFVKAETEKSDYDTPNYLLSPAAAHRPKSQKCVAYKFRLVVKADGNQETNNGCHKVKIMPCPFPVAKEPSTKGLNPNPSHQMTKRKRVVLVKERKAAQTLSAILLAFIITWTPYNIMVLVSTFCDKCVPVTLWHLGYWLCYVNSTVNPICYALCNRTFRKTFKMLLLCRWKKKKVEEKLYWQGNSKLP

[19] = molecular target: Substance-K receptor (Homo sapiens) (UniProt P21452); experiment: NK2 (h) CEREP ligand profiling; conditions: Compound concentration 10.0 uM
[20] = molecular target: Beta-2 adrenergic receptor (Homo sapiens) (UniProt P07550); experiment: beta 2 CEREP ligand profiling; conditions: Compound concentration 10.0 uM
[21] = molecular target: 5-hydroxytryptamine receptor 7 (Homo sapiens) (UniProt P34969); experiment: 5-HT7 (h) CEREP ligand profiling; conditions: Compound concentration 10.0 uM
[22] = molecular target: Type-2 angiotensin II receptor (Homo sapiens) (UniProt P50052); experiment: AT2 (h) CEREP ligand profiling; conditions: Compound concentration 10.0 uM
[23] = molecular target: D(3) dopamine receptor (Homo sapiens) (UniProt P35462); experiment: D3 (h) CEREP ligand profiling; conditions: Compound concentration 10.0 uM
[24] = molecular target: T2, Muscarinic acetylcholine receptor M2 (Homo sapiens) (UniProt P08172); experiment: M2 (h) CEREP ligand profiling; conditions: Compound concentration 10.0 uM
T2 sequence (whole entry): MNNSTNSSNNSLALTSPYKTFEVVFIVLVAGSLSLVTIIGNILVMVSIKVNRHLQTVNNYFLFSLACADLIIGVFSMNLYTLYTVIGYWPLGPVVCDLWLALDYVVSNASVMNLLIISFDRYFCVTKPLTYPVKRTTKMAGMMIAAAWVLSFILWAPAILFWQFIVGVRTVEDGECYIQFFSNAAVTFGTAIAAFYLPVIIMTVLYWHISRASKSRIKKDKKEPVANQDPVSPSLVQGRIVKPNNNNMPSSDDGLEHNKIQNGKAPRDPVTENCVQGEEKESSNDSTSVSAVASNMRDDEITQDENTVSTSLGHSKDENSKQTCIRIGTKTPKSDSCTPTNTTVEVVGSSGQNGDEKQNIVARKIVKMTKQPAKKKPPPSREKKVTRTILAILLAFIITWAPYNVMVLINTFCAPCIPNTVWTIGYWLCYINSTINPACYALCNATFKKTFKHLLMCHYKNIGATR

[25] = molecular target: Galanin receptor type 1 (Homo sapiens) (UniProt P47211); experiment: GAL1 (h) CEREP ligand profiling; conditions: Compound concentration 10.0 uM
[26] = molecular target: Somatostatin receptor (Homo sapiens) (UniProt P35346+P30874+P31391+P30872+P32745); experiment: sst CEREP ligand profiling; assay type: protein assay; conditions: Compound concentration 10.0 uM
[27] = molecular target: C-X-C chemokine receptor type 2 (Homo sapiens) (UniProt P25025); experiment: CXCR2 (h) CEREP ligand profiling; conditions: Compound concentration 10.0 uM
[28] = molecular target: Endothelin-1 receptor (Homo sapiens) (UniProt P25101); experiment: ETA (h) CEREP ligand profiling; conditions: Compound concentration 10.0 uM
[29] = molecular target: Substance-P receptor (Homo sapiens) (UniProt P25103); experiment: NK1 (h) CEREP ligand profiling; conditions: Compound concentration 10.0 uM

5-hydroxytryptamine receptor 6 (Homo sapiens), sequence (P50406 whole entry): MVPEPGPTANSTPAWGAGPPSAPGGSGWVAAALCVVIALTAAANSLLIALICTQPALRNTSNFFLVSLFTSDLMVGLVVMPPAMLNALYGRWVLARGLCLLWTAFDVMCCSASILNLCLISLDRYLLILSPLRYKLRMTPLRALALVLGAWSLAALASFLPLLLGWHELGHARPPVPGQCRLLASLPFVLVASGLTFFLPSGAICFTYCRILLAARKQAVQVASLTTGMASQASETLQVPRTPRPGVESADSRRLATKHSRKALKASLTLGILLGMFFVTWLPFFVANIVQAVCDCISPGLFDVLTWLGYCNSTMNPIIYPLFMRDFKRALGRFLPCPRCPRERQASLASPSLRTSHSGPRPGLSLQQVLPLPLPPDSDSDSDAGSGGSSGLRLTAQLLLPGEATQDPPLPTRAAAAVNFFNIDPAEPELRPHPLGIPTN
Histamine H2 receptor (Homo sapiens), sequence (P25021 whole entry): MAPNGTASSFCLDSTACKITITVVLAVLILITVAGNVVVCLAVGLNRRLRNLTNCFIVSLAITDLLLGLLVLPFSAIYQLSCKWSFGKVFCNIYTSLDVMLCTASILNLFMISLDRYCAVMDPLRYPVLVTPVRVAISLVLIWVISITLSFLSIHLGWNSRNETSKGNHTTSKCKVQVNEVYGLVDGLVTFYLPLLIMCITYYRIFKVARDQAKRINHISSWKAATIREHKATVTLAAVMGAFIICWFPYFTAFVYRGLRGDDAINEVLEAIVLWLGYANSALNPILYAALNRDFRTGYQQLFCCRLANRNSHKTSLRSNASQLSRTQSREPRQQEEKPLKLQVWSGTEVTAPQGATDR
Serine/threonine-protein kinase 17A (Homo sapiens), sequence (Q9UEE5 whole entry): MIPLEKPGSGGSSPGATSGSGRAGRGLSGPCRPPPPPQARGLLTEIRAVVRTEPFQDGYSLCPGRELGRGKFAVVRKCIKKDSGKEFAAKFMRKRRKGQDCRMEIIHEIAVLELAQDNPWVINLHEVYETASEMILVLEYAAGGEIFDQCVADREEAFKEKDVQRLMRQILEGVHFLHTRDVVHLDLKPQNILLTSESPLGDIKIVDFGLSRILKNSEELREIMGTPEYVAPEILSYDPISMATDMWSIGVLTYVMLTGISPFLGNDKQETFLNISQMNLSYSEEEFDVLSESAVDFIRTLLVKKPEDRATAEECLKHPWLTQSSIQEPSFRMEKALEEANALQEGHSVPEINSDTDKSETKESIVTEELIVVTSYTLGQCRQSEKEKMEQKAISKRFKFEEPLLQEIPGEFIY
C-X-C chemokine receptor type 2 (Homo sapiens), sequence (P25025 whole entry): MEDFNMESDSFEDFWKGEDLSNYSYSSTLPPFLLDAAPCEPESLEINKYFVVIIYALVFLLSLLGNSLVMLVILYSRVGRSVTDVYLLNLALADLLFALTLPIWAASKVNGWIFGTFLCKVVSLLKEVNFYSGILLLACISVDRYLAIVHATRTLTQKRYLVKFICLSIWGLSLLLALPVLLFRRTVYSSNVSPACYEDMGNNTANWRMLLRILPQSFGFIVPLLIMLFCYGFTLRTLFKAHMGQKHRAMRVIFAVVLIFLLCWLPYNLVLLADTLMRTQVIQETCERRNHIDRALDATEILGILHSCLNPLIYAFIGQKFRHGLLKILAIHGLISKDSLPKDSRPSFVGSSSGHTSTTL
Galanin receptor type 1 (Homo sapiens), sequence (P47211 whole entry): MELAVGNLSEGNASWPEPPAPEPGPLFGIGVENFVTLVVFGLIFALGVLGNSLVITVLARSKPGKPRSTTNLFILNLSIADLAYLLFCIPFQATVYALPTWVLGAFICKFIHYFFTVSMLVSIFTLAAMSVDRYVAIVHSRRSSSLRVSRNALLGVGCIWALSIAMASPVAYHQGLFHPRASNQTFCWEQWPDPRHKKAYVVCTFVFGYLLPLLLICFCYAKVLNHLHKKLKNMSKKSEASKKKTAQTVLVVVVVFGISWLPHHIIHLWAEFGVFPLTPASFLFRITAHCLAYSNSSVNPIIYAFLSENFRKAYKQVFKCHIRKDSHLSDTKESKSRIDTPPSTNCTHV
Endothelin-1 receptor (Homo sapiens), sequence (P25101 whole entry): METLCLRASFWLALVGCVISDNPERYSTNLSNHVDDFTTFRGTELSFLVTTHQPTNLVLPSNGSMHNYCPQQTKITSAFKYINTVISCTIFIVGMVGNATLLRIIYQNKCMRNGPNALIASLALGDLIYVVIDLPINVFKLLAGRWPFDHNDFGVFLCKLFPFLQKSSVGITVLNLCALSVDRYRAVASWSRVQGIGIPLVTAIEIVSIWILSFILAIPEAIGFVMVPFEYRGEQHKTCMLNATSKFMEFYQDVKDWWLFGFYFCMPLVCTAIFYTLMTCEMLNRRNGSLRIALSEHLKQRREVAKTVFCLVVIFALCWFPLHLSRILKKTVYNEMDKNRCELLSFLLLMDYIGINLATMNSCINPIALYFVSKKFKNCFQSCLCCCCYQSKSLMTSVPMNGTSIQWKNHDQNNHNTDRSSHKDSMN
Vasopressin V1a receptor (Homo sapiens), sequence (P37288 whole entry, looked up): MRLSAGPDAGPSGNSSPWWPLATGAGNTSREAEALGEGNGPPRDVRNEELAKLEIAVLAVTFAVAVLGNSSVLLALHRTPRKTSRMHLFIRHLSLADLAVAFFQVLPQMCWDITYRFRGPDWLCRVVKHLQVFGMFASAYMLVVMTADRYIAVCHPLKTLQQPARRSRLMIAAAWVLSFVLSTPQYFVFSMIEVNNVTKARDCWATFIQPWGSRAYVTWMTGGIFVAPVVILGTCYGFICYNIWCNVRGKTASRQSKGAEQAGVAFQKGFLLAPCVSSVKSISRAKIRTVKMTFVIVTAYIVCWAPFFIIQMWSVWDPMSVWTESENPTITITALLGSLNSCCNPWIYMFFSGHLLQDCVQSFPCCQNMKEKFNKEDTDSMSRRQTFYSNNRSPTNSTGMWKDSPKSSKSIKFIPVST
5-hydroxytryptamine receptor 7 (Homo sapiens), sequence (P34969 whole entry): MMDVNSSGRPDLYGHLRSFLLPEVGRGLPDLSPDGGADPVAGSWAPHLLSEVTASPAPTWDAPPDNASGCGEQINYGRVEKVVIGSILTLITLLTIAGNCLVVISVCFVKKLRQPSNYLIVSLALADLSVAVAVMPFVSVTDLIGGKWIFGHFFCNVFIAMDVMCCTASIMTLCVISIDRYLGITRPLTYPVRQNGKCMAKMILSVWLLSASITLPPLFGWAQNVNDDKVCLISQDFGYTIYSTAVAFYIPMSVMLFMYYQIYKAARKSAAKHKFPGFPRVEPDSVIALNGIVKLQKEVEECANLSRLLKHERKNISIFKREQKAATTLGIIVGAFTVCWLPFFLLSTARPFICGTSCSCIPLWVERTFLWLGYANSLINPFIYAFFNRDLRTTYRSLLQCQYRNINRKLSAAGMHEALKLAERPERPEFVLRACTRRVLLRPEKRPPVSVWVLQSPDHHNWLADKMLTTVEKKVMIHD
C-C chemokine receptor type 1 (Homo sapiens), sequence (P32246 whole entry): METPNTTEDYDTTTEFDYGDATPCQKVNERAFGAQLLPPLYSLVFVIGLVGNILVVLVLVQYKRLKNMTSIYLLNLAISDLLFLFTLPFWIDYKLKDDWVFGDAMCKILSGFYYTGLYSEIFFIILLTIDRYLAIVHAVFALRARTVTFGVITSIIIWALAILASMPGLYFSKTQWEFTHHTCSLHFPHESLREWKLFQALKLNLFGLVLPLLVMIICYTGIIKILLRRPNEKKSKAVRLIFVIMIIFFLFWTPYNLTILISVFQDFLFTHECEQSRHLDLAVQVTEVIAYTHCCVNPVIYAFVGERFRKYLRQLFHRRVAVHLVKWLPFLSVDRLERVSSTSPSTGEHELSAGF
Substance-K receptor (Homo sapiens), sequence (P21452 whole entry): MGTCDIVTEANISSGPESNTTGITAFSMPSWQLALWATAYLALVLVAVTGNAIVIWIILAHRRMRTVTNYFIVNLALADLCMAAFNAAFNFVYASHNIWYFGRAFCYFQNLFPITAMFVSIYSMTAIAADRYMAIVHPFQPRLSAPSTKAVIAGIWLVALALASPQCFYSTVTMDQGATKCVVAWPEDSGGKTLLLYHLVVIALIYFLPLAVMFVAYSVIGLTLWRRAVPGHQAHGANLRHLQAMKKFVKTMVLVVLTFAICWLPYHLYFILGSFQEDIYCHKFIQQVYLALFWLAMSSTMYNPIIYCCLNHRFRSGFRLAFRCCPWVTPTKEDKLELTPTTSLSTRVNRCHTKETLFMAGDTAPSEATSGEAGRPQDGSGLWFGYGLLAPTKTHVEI
Thromboxane A2 receptor (Homo sapiens), sequence (P21731 whole entry): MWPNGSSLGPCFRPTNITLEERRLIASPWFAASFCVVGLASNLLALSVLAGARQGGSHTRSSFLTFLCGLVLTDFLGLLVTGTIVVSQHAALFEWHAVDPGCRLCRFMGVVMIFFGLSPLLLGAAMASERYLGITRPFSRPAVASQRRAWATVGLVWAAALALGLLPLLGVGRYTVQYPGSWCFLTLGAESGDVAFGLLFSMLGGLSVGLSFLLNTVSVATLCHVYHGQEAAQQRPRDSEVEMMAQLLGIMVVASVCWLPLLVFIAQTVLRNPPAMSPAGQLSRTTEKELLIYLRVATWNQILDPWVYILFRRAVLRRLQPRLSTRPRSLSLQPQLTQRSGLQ
Endothelin receptor type B (Homo sapiens), sequence (P24530 whole entry): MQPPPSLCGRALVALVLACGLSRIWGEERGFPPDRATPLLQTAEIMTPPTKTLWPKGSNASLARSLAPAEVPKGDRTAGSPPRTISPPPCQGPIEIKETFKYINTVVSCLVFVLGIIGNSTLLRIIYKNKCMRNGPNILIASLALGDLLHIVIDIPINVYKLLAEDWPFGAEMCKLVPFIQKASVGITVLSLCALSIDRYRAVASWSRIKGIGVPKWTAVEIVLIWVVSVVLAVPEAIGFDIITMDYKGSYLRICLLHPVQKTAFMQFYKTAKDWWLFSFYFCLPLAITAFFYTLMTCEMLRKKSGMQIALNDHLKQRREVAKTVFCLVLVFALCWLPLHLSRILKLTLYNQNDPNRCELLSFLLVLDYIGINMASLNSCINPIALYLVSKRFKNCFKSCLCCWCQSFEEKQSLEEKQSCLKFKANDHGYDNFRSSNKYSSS

Q: How did the residual activity [1] turn out when `CCC(=N\O)/C(C)=C/c1ccc(F)c(C)c1` [A-226] was run?
A: The residual activity was 92%.

Q: And the residual activity [2]?
A: The residual activity was 73%.

Q: Which results are given for `CCC(=N\O)/C(C)=C/c1ccc(F)cc1` [A-079]?
A: inhibition [3]: 0%; inhibition [4]: 6%; inhibition [5]: 1%; inhibition [6]: 6%; inhibition [7]: 27%; inhibition [8]: 43%; inhibition [9]: -5%; inhibition [10]: 6%; inhibition [11]: 0%; inhibition [12]: 5%; inhibition [13]: -3%; inhibition [14]: -6%; inhibition at 10 µM [15]: 17% (not active); inhibition [16]: 8%; inhibition [17]: 0.46%; inhibition [18]: -4%; inhibition [19]: 2%; inhibition [20]: -3%; inhibition [21]: 17%; inhibition [22]: -9%; inhibition [23]: 14%; inhibition [24]: 13%; inhibition [25]: 5%; inhibition [26]: -4%; inhibition [27]: -1%; inhibition [28]: 5%; inhibition [29]: -3%
